Calls of active or inactive are those of the source. No cut-off for these calls is given here.
Experiments:
[1] = test system: Protein cereblon/Epidermal growth factor receptor (Homo sapiens), P00533+Q96SW2 [L858R,T790M,C797S]; assay: PROTAC activity at CRBN/EGFR L858R/T790M/C797S mutant in human H1975-TM cells assessed as induction of EGFR degradation by measuring remaining activity at 1.2 nM incubated for 24 hrs by Western blot analysis (reference value: 100%); assay type: cell-based
[2] = test system: Protein cereblon/Epidermal growth factor receptor (Homo sapiens), P00533+Q96SW2 [L858R,T790M,C797S]; assay: PROTAC activity at CRBN/EGFR L858R/T790M/C797S mutant in human H1975-TM cells assessed as induction of EGFR degradation by measuring remaining activity at 3.7 nM incubated for 24 hrs by Western blot analysis (reference value: 100%); assay type: cell-based
[3] = test system: Protein cereblon/Epidermal growth factor receptor (Homo sapiens), P00533+Q96SW2 [L858R,T790M,C797S]; assay: PROTAC activity at CRBN/EGFR L858R/T790M/C797S mutant in human H1975-TM cells assessed as induction of EGFR degradation by measuring remaining activity at 100 nM incubated for 24 hrs by Western blot analysis (reference value: 100%); assay type: cell-based
[4] = test system: Protein cereblon/Epidermal growth factor receptor (Homo sapiens), P00533+Q96SW2 [L858R,T790M,C797S]; assay: PROTAC activity at CRBN/EGFR L858R/T790M/C797S mutant in human H1975-TM cells assessed as induction of EGFR degradation by measuring remaining activity at 100 nM incubated for 3 hrs by Western blot analysis (reference value: 100%); assay type: cell-based
[5] = test system: Protein cereblon/Epidermal growth factor receptor (Homo sapiens), P00533+Q96SW2 [L858R,T790M,C797S]; assay: PROTAC activity at CRBN/EGFR L858R/T790M/C797S mutant in human H1975-TM cells assessed as induction of EGFR degradation by measuring remaining activity at 100 nM incubated for 6 hrs by Western blot analysis (reference value: 100%); assay type: cell-based
[6] = test system: Protein cereblon/Epidermal growth factor receptor (Homo sapiens), P00533+Q96SW2 [L858R,T790M,C797S]; assay: (§1) PROTAC activity at CRBN/EGFR L858R/T790M/C797S mutant in human H1975-TM cells assessed as induction of EGFR degradation by measuring remaining activity at 100 nM preincubated for 24 hrs followed by compound washout and measured after 24 hrs by Western blot analysis (reference value: 100%); assay type: cell-based
[7] = test system: Protein cereblon/Epidermal growth factor receptor (Homo sapiens), P00533+Q96SW2 [L858R,T790M,C797S]; assay: as §1, with “at 50” for “at 100”, “preincubated with lenalidomide” for “preincubated”, “for 6” for “for 24”, “compound addition” for “compound washout”; assay type: cell-based
[8] = target: Protein cereblon/Epidermal growth factor receptor (Homo sapiens, UniProt P00533+Q96SW2); assay: PROTAC activity at CRBN/wildtype EGFR in human A549 cells assessed as induction of EGFR degradation incubated for 24 hrs by Western blot analysis; assay type: cell-based
Protein cereblon/Epidermal growth factor receptor, sequence (P00533 whole entry): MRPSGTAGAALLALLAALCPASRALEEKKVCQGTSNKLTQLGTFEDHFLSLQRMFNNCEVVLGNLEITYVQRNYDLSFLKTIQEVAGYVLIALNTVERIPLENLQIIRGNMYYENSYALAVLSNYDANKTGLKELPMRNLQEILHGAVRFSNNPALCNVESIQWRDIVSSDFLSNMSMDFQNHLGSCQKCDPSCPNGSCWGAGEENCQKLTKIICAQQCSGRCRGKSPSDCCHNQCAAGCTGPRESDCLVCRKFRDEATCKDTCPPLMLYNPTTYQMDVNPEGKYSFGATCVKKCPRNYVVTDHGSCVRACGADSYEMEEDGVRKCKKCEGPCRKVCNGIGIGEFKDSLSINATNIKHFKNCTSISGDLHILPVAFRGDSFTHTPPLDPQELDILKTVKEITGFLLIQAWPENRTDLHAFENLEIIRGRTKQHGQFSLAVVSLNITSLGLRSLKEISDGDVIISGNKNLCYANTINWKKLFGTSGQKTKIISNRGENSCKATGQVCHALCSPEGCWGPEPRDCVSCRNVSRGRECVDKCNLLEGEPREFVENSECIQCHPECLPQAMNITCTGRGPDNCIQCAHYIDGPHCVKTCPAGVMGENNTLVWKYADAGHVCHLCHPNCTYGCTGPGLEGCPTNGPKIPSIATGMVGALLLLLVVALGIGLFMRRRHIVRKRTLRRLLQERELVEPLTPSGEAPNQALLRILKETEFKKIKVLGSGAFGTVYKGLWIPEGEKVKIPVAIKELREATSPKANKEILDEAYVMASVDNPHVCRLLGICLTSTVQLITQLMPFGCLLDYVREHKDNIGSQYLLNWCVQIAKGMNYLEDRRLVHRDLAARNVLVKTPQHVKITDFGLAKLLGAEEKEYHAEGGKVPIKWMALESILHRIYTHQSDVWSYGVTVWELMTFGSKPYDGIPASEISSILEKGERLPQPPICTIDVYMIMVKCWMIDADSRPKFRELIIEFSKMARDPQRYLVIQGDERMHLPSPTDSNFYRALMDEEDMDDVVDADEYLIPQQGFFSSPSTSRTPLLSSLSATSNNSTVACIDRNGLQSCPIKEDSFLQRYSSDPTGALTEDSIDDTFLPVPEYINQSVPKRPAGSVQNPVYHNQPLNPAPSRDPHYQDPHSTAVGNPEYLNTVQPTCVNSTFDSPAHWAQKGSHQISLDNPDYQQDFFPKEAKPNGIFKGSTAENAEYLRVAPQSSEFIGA
Protein cereblon/Epidermal growth factor receptor, sequence (Q96SW2 whole entry): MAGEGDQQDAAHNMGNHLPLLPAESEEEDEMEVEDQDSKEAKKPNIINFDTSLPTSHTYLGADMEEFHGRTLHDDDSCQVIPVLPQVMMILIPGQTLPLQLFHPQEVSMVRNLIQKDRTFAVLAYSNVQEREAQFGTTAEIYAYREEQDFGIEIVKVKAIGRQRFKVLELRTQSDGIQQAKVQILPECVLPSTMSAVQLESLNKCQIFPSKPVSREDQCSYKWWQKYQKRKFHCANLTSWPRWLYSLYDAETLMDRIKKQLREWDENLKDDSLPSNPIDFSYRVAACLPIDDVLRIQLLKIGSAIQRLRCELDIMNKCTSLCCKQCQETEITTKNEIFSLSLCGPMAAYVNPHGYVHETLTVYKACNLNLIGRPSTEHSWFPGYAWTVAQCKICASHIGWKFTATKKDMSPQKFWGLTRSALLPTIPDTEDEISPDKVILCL

[9] = target: Probable U3 small nucleolar RNA-associated protein 11 (Homo sapiens) (UniProt Q9Y3A2); assay: Induction of UTP11 degradation in human H1975-TM cells at 50 nM incubated for 24 hrs; assay type: cell-based
Probable U3 small nucleolar RNA-associated protein 11 (Homo sapiens), sequence (Q9Y3A2 whole entry): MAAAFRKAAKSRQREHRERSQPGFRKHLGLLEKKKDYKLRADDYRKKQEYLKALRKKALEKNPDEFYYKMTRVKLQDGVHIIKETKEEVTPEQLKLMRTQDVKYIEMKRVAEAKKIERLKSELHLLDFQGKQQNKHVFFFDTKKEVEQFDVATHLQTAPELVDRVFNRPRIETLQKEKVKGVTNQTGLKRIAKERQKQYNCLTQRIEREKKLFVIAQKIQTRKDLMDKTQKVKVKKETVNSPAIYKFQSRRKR

[10] = target: Ribosomal protein S6 kinase alpha-1 (Homo sapiens) (UniProt Q15418); assay: Induction of RPS6KA1 degradation in human H1975-TM cells at 50 nM incubated for 24 hrs; assay type: cell-based
Ribosomal protein S6 kinase alpha-1 (Homo sapiens), sequence (Q15418 whole entry): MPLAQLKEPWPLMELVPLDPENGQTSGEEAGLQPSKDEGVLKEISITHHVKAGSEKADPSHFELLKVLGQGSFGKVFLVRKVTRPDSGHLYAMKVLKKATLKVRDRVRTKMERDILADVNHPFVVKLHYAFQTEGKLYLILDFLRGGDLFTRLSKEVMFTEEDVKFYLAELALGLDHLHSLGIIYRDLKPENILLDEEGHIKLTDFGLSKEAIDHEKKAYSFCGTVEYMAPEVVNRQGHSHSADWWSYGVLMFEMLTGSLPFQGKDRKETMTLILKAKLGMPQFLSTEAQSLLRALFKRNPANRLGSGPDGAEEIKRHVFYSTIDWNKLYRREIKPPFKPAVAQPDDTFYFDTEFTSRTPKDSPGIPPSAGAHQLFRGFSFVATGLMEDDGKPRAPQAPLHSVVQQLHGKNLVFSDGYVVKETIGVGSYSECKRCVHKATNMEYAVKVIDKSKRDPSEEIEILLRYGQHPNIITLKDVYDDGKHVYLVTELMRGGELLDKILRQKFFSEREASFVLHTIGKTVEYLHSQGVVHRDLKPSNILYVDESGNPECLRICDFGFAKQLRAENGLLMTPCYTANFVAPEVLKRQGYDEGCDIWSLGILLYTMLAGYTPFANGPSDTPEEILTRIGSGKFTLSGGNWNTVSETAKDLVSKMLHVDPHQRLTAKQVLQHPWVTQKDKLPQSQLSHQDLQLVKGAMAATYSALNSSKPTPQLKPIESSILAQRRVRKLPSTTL

[11] = Inhibition of colony formation in human H1975-TM cells harboring EGFR L858R/T790M/C797S mutant at 33 nM incubated for 14 days by crystal violet staining based analysis relative to control; assay type: functional; conditions: 336 h, time 14 day
[12] = target: Epidermal growth factor receptor (Homo sapiens) (UniProt P00533); assay: Inhibition of EGFR signaling in human H1975-TM cells harboring EGFR L858R/T790M/C797S mutant assessed as reduction in ERK activation by Western blot analysis; assay type: cell-based; conditions: dose 1.2-300 nM
Epidermal growth factor receptor (Homo sapiens), sequence (P00533 whole entry): as the sequence (P00533 whole entry) above

[13] = Toxicity in BALB/c nude mouse xenografted with human H1975-TM cells assessed as liver lesions at 25 to 100 mg/kg, po administered once daily for 31 days by Hematoxylin and eosin staining based analysis; assay type: organism-based; conditions: in vivo, 744 h, dose 25-100 mg/kg, time 31 day
[14] = Toxicity in BALB/c nude mouse xenografted with human H1975-TM cells assessed as spleen lesions at 25 to 100 mg/kg, po administered once daily for 31 days by Hematoxylin and eosin staining based analysis; assay type: organism-based; conditions: in vivo, 744 h, dose 25-100 mg/kg, time 31 day
[15] = Toxicity in BALB/c nude mouse xenografted with human H1975-TM cells assessed as kidney lesions at 25 to 100 mg/kg, po administered once daily for 31 days by Hematoxylin and eosin staining based analysis; assay type: organism-based; conditions: in vivo, 744 h, dose 25-100 mg/kg, time 31 day
[16] = Half-life in male Sprague-Dawley rat at 5 mg/kg, iv measured after 24 hrs by LC-MS/MS analysis; assay type: ADME, organism-based; conditions: in vivo
[17] = Tmax in male Sprague-Dawley rat at 50 mg/kg, po measured after 24 hrs by LC-MS/MS analysis; assay type: ADME, organism-based; conditions: in vivo

With CCS(=O)(=O)n1cc(-c2nc(Nc3ccc(N4CCN(CCCCCCC(=O)Nc5cccc6c5CN(C5CCC(=O)NC5=O)C6=O)CC4)cc3)ncc2C(F)(F)F)c2ccccc21 (configuration not stated) the Activity [1] was 107%, the Activity [2] was 46.6% and the Activity [3] was 2.3%. It also gave an Activity [4] of 75.7%, an Activity [5] of 65.9% and an Activity [6] of 52.9%. For the same compound, the Activity [7] was 56.4%, the DC50 [8] was over 300 nM and the Activity [9] was “Active”. The Activity [10] was “Active”, the inhibition at 0.033 µM [11] was about 100% and the inhibition [12] was “Dose-Dependent Effect”. The Activity [13] was “Non-Toxic”, the Activity [14] was “Non-Toxic” and the Activity [15] was “Non-Toxic”. It also gave a half-life [16] of 38 h and a Tmax [17] of 5.7 h.

— ChEMBL document CHEMBL5543167, “Design, Synthesis, and Biological Evaluation of Novel EGFR PROTACs Targeting C797S Mutation” (J Med Chem, 2024)
